Nine compounds from ChEMBL document CHEMBL6109125, “A New Protractor Potentiates Glucagon-Like Peptide 1 with Slow-Release Depot and Long-Term Action” (J Med Chem, 2025) can be followed below.

In data set [1] the target is T1, Glucagon-like peptide 1 receptor (Homo sapiens, UniProt P43220). Kind of data set: Agonist activity at GLP-1R (unknown origin) expressed in HEK293 cells co-expressing CRE-Luc assessed as increase in intracellular cAMP accumulation in presence of 10% FBS by luciferase based assay. In kind it is functional, cell-based. In general terms: Cyclic AMP is a second messenger, typically raised through Gs and lowered through Gi signalling.
T1 sequence (P43220 whole entry): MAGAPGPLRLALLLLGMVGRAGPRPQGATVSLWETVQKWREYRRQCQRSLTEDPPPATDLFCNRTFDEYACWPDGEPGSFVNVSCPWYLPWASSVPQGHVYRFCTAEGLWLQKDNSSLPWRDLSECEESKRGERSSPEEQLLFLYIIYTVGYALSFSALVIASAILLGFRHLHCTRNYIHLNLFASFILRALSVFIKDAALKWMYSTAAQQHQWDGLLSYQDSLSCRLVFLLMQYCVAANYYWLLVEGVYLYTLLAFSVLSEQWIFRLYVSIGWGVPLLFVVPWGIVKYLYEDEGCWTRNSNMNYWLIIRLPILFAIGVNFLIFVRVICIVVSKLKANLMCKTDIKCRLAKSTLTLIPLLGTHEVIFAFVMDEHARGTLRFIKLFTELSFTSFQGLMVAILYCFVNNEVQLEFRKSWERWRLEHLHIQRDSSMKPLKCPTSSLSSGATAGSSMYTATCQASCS

The target in data set [2] is T1, Glucagon-like peptide 1 receptor. Kind of data set: Agonist activity at GLP-1R (unknown origin) expressed in HEK293 cells co-expressing CRE-Luc assessed as increase in intracellular cAMP accumulation in presence of 2% HSA by luciferase based assay. In kind it is functional, cell-based.
Data set [3] can be described thus: Selectivity ratio of EC50 for agonist activity at GLP-1R (unknown origin) expressed in HEK293 cells co-expressing CRE-Luc assessed as increase in intracellular cAMP accumulation in presence of 2% HSA to EC50 for agonist activity at GLP-1R (unknown origin) expressed in HEK293 cells co-expressing CRE-Luc assessed as increase in intracellular cAMP accumulation. In kind it is cell-based.

Data set [4] has as its target T1, Glucagon-like peptide 1 receptor. Kind of data set: Agonist activity at GLP-1R (unknown origin) expressed in HEK293 cells co-expressing CRE-Luc assessed as increase in intracellular cAMP accumulation by luciferase based assay. In kind it is functional, cell-based.
Data set [5] can be described thus: Stability in Sprague-Dawley rat plasma assessed as drug degradation by measuring half life measured after 96 hrs by RP-HPLC analysis. The format is ADME, cell-free.
Data set [6] is described as follows: Stability in Sprague-Dawley rat plasma assessed as compound remaining measured after 96 hrs by RP-HPLC analysis. In kind it is ADME, cell-free. To be noted: read-out: Stability.
For data set [7], the target named is Albumin (Homo sapiens, UniProt P02768). Kind of data set: Binding affinity to human serum albumin immobilized on AR2G biosensor assessed as dissociation constant incubated for 3 mins by BLI assay. The format is ADME.
Albumin, sequence (P02768 whole entry): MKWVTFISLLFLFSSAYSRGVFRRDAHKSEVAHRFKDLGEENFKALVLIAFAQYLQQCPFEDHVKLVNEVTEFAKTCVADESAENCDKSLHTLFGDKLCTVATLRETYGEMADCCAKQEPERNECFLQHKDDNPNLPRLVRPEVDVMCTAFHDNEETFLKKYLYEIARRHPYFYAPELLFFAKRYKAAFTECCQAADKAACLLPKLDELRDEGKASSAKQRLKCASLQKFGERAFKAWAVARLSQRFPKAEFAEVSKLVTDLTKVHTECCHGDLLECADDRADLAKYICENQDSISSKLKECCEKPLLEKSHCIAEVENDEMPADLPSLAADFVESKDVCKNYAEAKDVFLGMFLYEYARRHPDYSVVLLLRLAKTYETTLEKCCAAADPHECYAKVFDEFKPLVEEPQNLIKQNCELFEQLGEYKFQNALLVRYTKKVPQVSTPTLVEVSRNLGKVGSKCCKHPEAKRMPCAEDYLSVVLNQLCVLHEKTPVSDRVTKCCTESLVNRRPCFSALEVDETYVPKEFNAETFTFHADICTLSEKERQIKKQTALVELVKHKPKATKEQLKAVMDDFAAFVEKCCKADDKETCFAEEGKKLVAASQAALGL

As usually defined, the EC50 is the concentration needed to bring the measured effect to its halfway point. The term half-life denotes the time in which the quantity being followed falls by half. Usually Kd stands for the equilibrium constant for the complex coming apart.

As for `CCOc1ccc(Nc2ccc(/C(=C3C=C/C(=[N+](\CC)Cc4cccc(S(=O)(=O)[O-])c4)C=C\3C)c3ccc(N(CC)Cc4cccc(S(=O)(=O)NCCCCCC(=O)NCCOCCOCCOCCOCCOCCOCCOCCOCCC(=O)NCCCC[C@H](NC(=O)[C@@H](NC(=O)[C@H](CC(C)C)NC(=O)[C@H](Cc5c[nH]c6ccccc56)NC(=O)[C@H](C)NC(=O)[C@@H](NC(=O)[C@H](Cc5ccccc5)NC(=O)[C@H](CCC(=O)O)NC(=O)[C@H](CCCCN)NC(=O)[C@H](C)NC(=O)[C@H](C)NC(=O)[C@H](CCC(N)=O)NC(=O)CNC(=O)[C@H](CCC(=O)O)NC(=O)[C@H](CC(C)C)NC(=O)[C@H](Cc5ccc(O)cc5)NC(=O)[C@H](CO)NC(=O)[C@H](CO)NC(=O)[C@@H](NC(=O)[C@H](CC(=O)O)NC(=O)[C@H](CO)NC(=O)[C@@H](NC(=O)[C@H](Cc5ccccc5)NC(=O)[C@@H](NC(=O)CNC(=O)[C@H](CCC(=O)O)NC(=O)[C@H](CO)NC(=O)[C@@H](N)Cc5c[nH]cn5)[C@@H](C)O)[C@@H](C)O)C(C)C)[C@@H](C)CC)C(C)C)C(=O)NCC(=O)N[C@@H](CCCNC(=N)N)C(N)=O)c4)cc3C)cc2)cc1`, the EC50 in data set [1] (read-out: EC50) stood at 3.96 pM; in data set [2] (read-out: EC50), 0.84 pM; in data set [4] (read-out: EC50), 0.33 pM. Besides, the Ratio EC50 in data set [3] is 2.55.

Regarding `CCOc1ccc(Nc2ccc(/C(=C3C=C/C(=[N+](\CC)Cc4ccc(S(=O)(=O)[O-])cc4)C=C/3C)c3ccc(N(CC)Cc4cccc(S(=O)(=O)NCCCCCC(=O)N[C@H](C(=O)O)C(=O)NCCCC[C@H](NC(=O)[C@H](C)NC(=O)[C@H](C)NC(=O)[C@H](CCC(N)=O)NC(=O)CNC(=O)[C@H](CCC(=O)O)NC(=O)[C@H](CC(C)C)NC(=O)[C@H](Cc5ccc(O)cc5)NC(=O)[C@H](CO)NC(=O)[C@H](CO)NC(=O)[C@@H](NC(=O)[C@H](CC(=O)O)NC(=O)[C@H](CO)NC(=O)[C@@H](NC(=O)[C@H](Cc5ccccc5)NC(=O)[C@@H](NC(=O)CNC(=O)[C@H](CCC(=O)O)NC(=O)C(C)(C)NC(=O)[C@@H](N)Cc5c[nH]cn5)[C@@H](C)O)[C@@H](C)O)C(C)C)C(=O)N[C@@H](CCC(=O)O)C(=O)N[C@@H](Cc5ccccc5)C(=O)N[C@H](C(=O)N[C@@H](C)C(=O)N[C@@H](Cc5c[nH]c6ccccc56)C(=O)N[C@@H](CC(C)C)C(=O)N[C@H](C(=O)N[C@@H](CCCNC(=N)N)C(=O)NCC(=O)N[C@@H](CCCNC(=N)N)C(=O)NCC(=O)O)C(C)C)[C@@H](C)CC)c4)cc3C)cc2)cc1`, the values for the EC50 in data set [1] (read-out: EC50), in data set [2] (read-out: EC50) and in data set [4] (read-out: EC50) were 4.08 pM, 8.86 pM and 1.12 pM, respectively. In addition, the Ratio EC50 in data set [3] is 7.91.

On to `CCOc1ccc(Nc2ccc(/C(=C3C=C/C(=[N+](\CC)Cc4cccc(S(=O)(=O)[O-])c4)C=C/3C)c3ccc(N(CC)Cc4cccc(S(=O)(=O)NCCCCCC(=O)N[C@@H](CS(=O)(=O)O)C(=O)NCCOCCOCC(=O)NCCCC[C@H](NC(=O)[C@H](C)NC(=O)[C@H](C)NC(=O)[C@H](CCC(N)=O)NC(=O)CNC(=O)[C@H](CCC(=O)O)NC(=O)[C@H](CC(C)C)NC(=O)[C@H](Cc5ccc(O)cc5)NC(=O)[C@H](CO)NC(=O)[C@H](CO)NC(=O)[C@@H](NC(=O)[C@H](CC(=O)O)NC(=O)[C@H](CO)NC(=O)[C@@H](NC(=O)[C@H](Cc5ccccc5)NC(=O)[C@@H](NC(=O)CNC(=O)[C@H](CCC(=O)O)NC(=O)C(C)(C)NC(=O)[C@@H](N)Cc5c[nH]cn5)[C@@H](C)O)[C@@H](C)O)C(C)C)C(=O)N[C@@H](CCC(=O)O)C(=O)N[C@@H](Cc5ccccc5)C(=O)N[C@H](C(=O)N[C@@H](C)C(=O)N[C@@H](Cc5c[nH]c6ccccc56)C(=O)N[C@@H](CC(C)C)C(=O)N[C@H](C(=O)N[C@@H](CCCNC(=N)N)C(=O)NCC(=O)N[C@@H](CCCNC(=N)N)C(=O)NCC(=O)O)C(C)C)[C@@H](C)CC)c4)cc3C)cc2)cc1`, for which the EC50 in data set [1] (read-out: EC50) is 1.16 pM; in data set [2] (read-out: EC50), 4.25 pM; in data set [4] (read-out: EC50) it was 1.13 pM.

On to `CCOc1ccc(Nc2ccc(/C(=C3C=C/C(=[N+](\CC)Cc4ccc(S(=O)(=O)[O-])cc4)C=C/3C)c3ccc(N(CC)Cc4cccc(S(=O)(=O)NCCCCCC(=O)NCc5ccc(C(=O)NCCCC[C@H](NC(=O)[C@H](C)NC(=O)[C@H](C)NC(=O)[C@H](CCC(N)=O)NC(=O)CNC(=O)[C@H](CCC(=O)O)NC(=O)[C@H](CC(C)C)NC(=O)[C@H](Cc6ccc(O)cc6)NC(=O)[C@H](CO)NC(=O)[C@H](CO)NC(=O)[C@@H](NC(=O)[C@H](CC(=O)O)NC(=O)[C@H](CO)NC(=O)[C@@H](NC(=O)[C@H](Cc6ccccc6)NC(=O)[C@@H](NC(=O)CNC(=O)[C@H](CCC(=O)O)NC(=O)C(C)(C)NC(=O)[C@@H](N)Cc6c[nH]cn6)[C@@H](C)O)[C@@H](C)O)C(C)C)C(=O)N[C@@H](CCC(=O)O)C(=O)N[C@@H](Cc6ccccc6)C(=O)N[C@H](C(=O)N[C@@H](C)C(=O)N[C@@H](Cc6c[nH]c7ccccc67)C(=O)N[C@@H](CC(C)C)C(=O)N[C@H](C(=O)N[C@@H](CCCNC(=N)N)C(=O)NCC(=O)N[C@@H](CCCNC(=N)N)C(=O)NCC(=O)O)C(C)C)[C@@H](C)CC)cc5)c4)cc3C)cc2)cc1`, for which the EC50 in data set [1] (read-out: EC50) came out at 4.2 pM; in data set [2] (read-out: EC50) it was 3.22 pM; in data set [4] (read-out: EC50), 1.08 pM.

As for `CCOc1ccc(Nc2ccc(/C(=C3C=C/C(=[N+](\CC)Cc4cccc(S(=O)(=O)[O-])c4)C=C/3C)c3ccc(N(CC)Cc4cccc(S(=O)(=O)NCCCCCC(=O)NCCOCCOCCOCCOCCOCCOCCOCCOCCC(=O)NCCCC[C@H](NC(=O)[C@H](C)NC(=O)[C@H](C)NC(=O)[C@H](CCC(N)=O)NC(=O)CNC(=O)[C@H](CCC(=O)O)NC(=O)[C@H](CC(C)C)NC(=O)[C@H](Cc5ccc(O)cc5)NC(=O)[C@H](CO)NC(=O)[C@H](CO)NC(=O)[C@@H](NC(=O)[C@H](CC(=O)O)NC(=O)[C@H](CO)NC(=O)[C@@H](NC(=O)[C@H](Cc5ccccc5)NC(=O)[C@@H](NC(=O)CNC(=O)[C@H](CCC(=O)O)NC(=O)C(C)(C)NC(=O)[C@@H](N)Cc5c[nH]cn5)[C@@H](C)O)[C@@H](C)O)C(C)C)C(=O)N[C@@H](CCC(=O)O)C(=O)N[C@@H](Cc5ccccc5)C(=O)N[C@H](C(=O)N[C@@H](C)C(=O)N[C@@H](Cc5c[nH]c6ccccc56)C(=O)N[C@@H](CC(C)C)C(=O)N[C@H](C(=O)N[C@@H](CCCNC(=N)N)C(=O)NCC(=O)N[C@@H](CCCNC(=N)N)C(=O)NCC(=O)O)C(C)C)[C@@H](C)CC)c4)cc3C)cc2)cc1`, the EC50 was determined as 0.93 pM in data set [1] (read-out: EC50), 2.44 pM in data set [2] (read-out: EC50) and 0.16 pM in data set [4] (read-out: EC50).

Turning to `CC[C@H](C)[C@H](NC(=O)[C@H](Cc1ccccc1)NC(=O)[C@H](CCC(=O)O)NC(=O)[C@H](CCCCN)NC(=O)[C@H](C)NC(=O)[C@H](C)NC(=O)[C@H](CCC(N)=O)NC(=O)CNC(=O)[C@H](CCC(=O)O)NC(=O)[C@H](CC(C)C)NC(=O)[C@H](Cc1ccc(O)cc1)NC(=O)[C@H](CO)NC(=O)[C@H](CO)NC(=O)[C@@H](NC(=O)[C@H](CC(=O)O)NC(=O)[C@H](CO)NC(=O)[C@@H](NC(=O)[C@H](Cc1ccccc1)NC(=O)[C@@H](NC(=O)CNC(=O)[C@@H](N)CCC(=O)O)[C@@H](C)O)[C@@H](C)O)C(C)C)C(=O)N[C@@H](C)C(=O)N[C@@H](Cc1c[nH]c2ccccc12)C(=O)N[C@@H](CC(C)C)C(=O)N[C@H](C(=O)N[C@@H](CCCNC(=N)N)C(=O)NCC(=O)N[C@@H](CCCNC(=N)N)C(=O)NCC(N)=O)C(C)C`, the EC50 result in data set [1] (hek293), in data set [2] (hek293) and in data set [4] (hek293) was “No_effect” in each case.

As to H-HGEGTFTSDVSSYLEGQAAREFIAWLVRGRG-NH2, the EC50 in data set [1] (read-out: EC50) stood at 16.1 pM; in data set [2] (read-out: EC50) it was 84.2 pM; in data set [4] (read-out: EC50), 62.8 pM. Also, in data set [5], the half-life worked out at 50 min. Moreover, in data set [3], the Ratio EC50 came out at 1.34. Further, the remaining at 96 h in data set [6] turned out to be 0%.

Consider `CCOc1ccc(Nc2ccc(/C(=C3C=C/C(=[N+](\CC)Cc4cccc(S(=O)(=O)[O-])c4)C=C/3C)c3ccc(N(CC)Cc4cccc(S(=O)(=O)NCCCCCC(=O)NCCOCCOCC(=O)NCCOCCOCC(=O)NCCOCCOCC(=O)NCCCC[C@H](NC(=O)[C@H](C)NC(=O)[C@H](C)NC(=O)[C@H](CCC(N)=O)NC(=O)CNC(=O)[C@H](CCC(=O)O)NC(=O)[C@H](CC(C)C)NC(=O)[C@H](Cc5ccc(O)cc5)NC(=O)[C@H](CO)NC(=O)[C@H](CO)NC(=O)[C@@H](NC(=O)[C@H](CC(=O)O)NC(=O)[C@H](CO)NC(=O)[C@@H](NC(=O)[C@H](Cc5ccccc5)NC(=O)[C@@H](NC(=O)CNC(=O)[C@H](CCC(=O)O)NC(=O)C(C)(C)NC(=O)[C@@H](N)Cc5c[nH]cn5)[C@@H](C)O)[C@@H](C)O)C(C)C)C(=O)N[C@@H](CCC(=O)O)C(=O)N[C@@H](Cc5ccccc5)C(=O)N[C@H](C(=O)N[C@@H](C)C(=O)N[C@@H](Cc5c[nH]c6ccccc56)C(=O)N[C@@H](CC(C)C)C(=O)N[C@H](C(=O)N[C@@H](CCCNC(=N)N)C(=O)NCC(=O)N[C@@H](CCCNC(=N)N)C(=O)NCC(=O)O)C(C)C)[C@@H](C)CC)c4)cc3C)cc2)cc1`, for which the EC50 in data set [1] (read-out: EC50) is 1.46 pM; in data set [2] (read-out: EC50), 4.31 pM; in data set [4] (read-out: EC50), 0.83 pM.

For the compound `CCOc1ccc(Nc2ccc(/C(=C3C=C/C(=[N+](/CC)Cc4cccc(S(=O)(=O)[O-])c4)C=C/3C)c3ccc(N(CC)Cc4cccc(S(=O)(=O)O)c4)cc3C)cc2)cc1` [BRILLIANT BLUE G FREE ACID], in data set [7], the Kd amounted to 320000 pM.
